Measured values taken from paper PMC11892870 (PLOS One, 2025).
Like-named read-outs stand apart in the source and are kept apart here.

Columns and labels:
[1] = biological target: T1, Aβ1-42 fibrils (Homo sapiens, UniProt P05067); test: biochemical; details: read-out: Aβ destabilization IC50
T1 construct: Aβ1-42 was firstly dissolved in HFIP
Source text: (§1) Then, the solvent was dried in hood using nitrogen, and reconstituted to working solution with 0.5 M phosphate buffer (pH 7.4).

[2] = biological target: BChE (Homo sapiens, UniProt P06276); test: biochemical; details: mean ± SD, n = 3; read-out: BChE inhibition IC50
[3] = biological target: T2, Aβ1-42 (Homo sapiens, UniProt P05067); test: Inhibition of Aβ1-42 aggregation (fibril formation), ThT fluorescence; format: biochemical
T2 construct: Aβ1-42 was firstly dissolved in HFIP
Source text: as §1

[4] = ABTS radical scavenging; details: read-out: Antioxidant ABTS IC50
Method: (§2) The mixtures were kept in the dark for 30 minutes and then the absorbance was measured at 550 nm. In case of ABTS assay, ABTS radical cation (ABTS • + ) was prepared from a mixture of the ABTS stock solution (7 mM) and potassium persulfate (2.45 mM) in water. The mixture was then kept in the dark for 12-16 hours before use. Then, the ABTS • + solution was diluted in ethanol until the absorbance reached 0.70 ± 0.02 at […].
(§3) Trolox was used as a positive control in both assays, while a mixture of ethanol and DPPH or ABTS • + solution served as the negative control. The percentage inhibition of DPPH and ABTS radicals was calculated using the following equation:
(§4) DPPHandABTSinhibition%=A0−A1/A0×100
(§5) A0 is the absorbance of the control and A1 is the absorbance of the sample.

[5] = biological target: AChE (Homo sapiens, UniProt P22303); test: biochemical
[6] = Cytotoxicity in differentiated SH-SY5Y cells, MTT; format: cell-based; details: human
Method: (§6) Neuroblastoma cells (SH-SY5Y) were maintained in humidified atmosphere at 37 °C with 5%CO2 in DMEM/F12 supplement with 10%FBS. Afterward, cells were treated for 6 days and replaced every 3 days with 1%FBS supplementation and 10 μM of retinoic acid. Cells were seeded (100,000 cells per well) in 96-well microplates and cultured for 48 hours before treatment. […] Cell viability was assessed using MTT assay. Absorbance at 570 nm was measured for both treated and untreated samples, with viability expressed as a percentage relative to the control.

[7] = DPPH radical scavenging; details: read-out: Antioxidant DPPH IC50
Method: as §2, §3, §4, §5

[8] = system: scopolamine-induced amnesic mice; test: Novel object recognition test, scopolamine-induced amnesia; format: in vivo
[9] = system: scopolamine-induced amnesic mice; test: Modified Y-maze test, scopolamine-induced amnesia; format: in vivo
[10] = system: male ICR mice; test: Locomotor activity and spontaneous alternation in Y-maze; format: in vivo; details: donepezil 3 mg/kg p.o., average of 7 mice
Method: Scopolamine was dissolved in NSS. Donepezil and crude extract were dissolved in corn oil. Animal doses were calculated according to mice body weight. […].
Sixty male ICR mice in age 6 weeks (34-44 g) were supplied from Northeast Laboratory Animal Center, KKU. Before conducting the experiments, they were acclimatized for a week with a 12h light-dark cycle and had free access to their diet and water. Their body weight was recorded every day. […] Investigators could not be blinded to the mouse groups due to the difference in code colors. However, the investigators who assessed the mouse’s behavior were blinded to the mouse code for providing unbiased data. The parameters related to behavioral changes were assessed including the number of arm entries, the exploration time spent, and the time spent in a preference quadrant.
Locomotor activity was investigated in a black polyvinyl chamber Y maze. The size of the chamber is 40 cm long, 3 cm wide at the bottom and 10 cm wide at the top, and 12 cm high in each arm. Mice were first allowed to acclimate the chamber and freely moved in Y maze for 8 minutes. After acclimatization, the locomotor activity was measured for 1 hour following the treatment administration. The number of arm entries was recorded from the middle of the maze.

[11] = system: scopolamine-induced amnesic mice; test: Morris water maze test, scopolamine-induced amnesia; format: in vivo
[12] = system: SH-SY5Y cells; test: Cytotoxicity in differentiated SH-SY5Y cells, MTT; format: cell-based; details: 100 µM, SH-SY5Y, MTT, average of 5
Method: as §6

[13] = read-out: Inhibition of Aβ formation IC50
[14] = 0.1 µM, SH-SY5Y, MTT, average of 5, read-out: %Cell viability (cytotoxicity)
[15] = 1 µM, SH-SY5Y, MTT, average of 5, read-out: %Cell viability (cytotoxicity)
[16] = 10 µM, SH-SY5Y, MTT, average of 5, read-out: %Cell viability (cytotoxicity)
[17] = 100 µM, SH-SY5Y, MTT, average of 5, read-out: %Cell viability (cytotoxicity)
[18] = long-term memory (24 h delay), donepezil 3 mg/kg p.o. + scopolamine 1 mg/kg i.p.
[19] = short-term memory, donepezil 3 mg/kg p.o. + scopolamine 1 mg/kg i.p.
[20] = mean ± SD, n = 3, read-out: AChE inhibition IC50
[21] = differentiated SH-SY5Y neuroblastoma cells, 0.1 µM, SH-SY5Y, MTT, average of 5, read-out: %Cell viability (cytotoxicity)
[22] = differentiated SH-SY5Y neuroblastoma cells, 1 µM, SH-SY5Y, MTT, average of 5, read-out: %Cell viability (cytotoxicity)
[23] = differentiated SH-SY5Y neuroblastoma cells, 10 µM, SH-SY5Y, MTT, average of 5, read-out: %Cell viability (cytotoxicity)
[24] = differentiated SH-SY5Y neuroblastoma cells, 100 µM, SH-SY5Y, MTT, average of 5, read-out: %Cell viability (cytotoxicity)
[25] = long-term memory (24 h delay), scopolamine 1 mg/kg i.p. alone
[26] = short-term memory, scopolamine 1 mg/kg i.p. alone

Chain of AChE (P22303 32-614): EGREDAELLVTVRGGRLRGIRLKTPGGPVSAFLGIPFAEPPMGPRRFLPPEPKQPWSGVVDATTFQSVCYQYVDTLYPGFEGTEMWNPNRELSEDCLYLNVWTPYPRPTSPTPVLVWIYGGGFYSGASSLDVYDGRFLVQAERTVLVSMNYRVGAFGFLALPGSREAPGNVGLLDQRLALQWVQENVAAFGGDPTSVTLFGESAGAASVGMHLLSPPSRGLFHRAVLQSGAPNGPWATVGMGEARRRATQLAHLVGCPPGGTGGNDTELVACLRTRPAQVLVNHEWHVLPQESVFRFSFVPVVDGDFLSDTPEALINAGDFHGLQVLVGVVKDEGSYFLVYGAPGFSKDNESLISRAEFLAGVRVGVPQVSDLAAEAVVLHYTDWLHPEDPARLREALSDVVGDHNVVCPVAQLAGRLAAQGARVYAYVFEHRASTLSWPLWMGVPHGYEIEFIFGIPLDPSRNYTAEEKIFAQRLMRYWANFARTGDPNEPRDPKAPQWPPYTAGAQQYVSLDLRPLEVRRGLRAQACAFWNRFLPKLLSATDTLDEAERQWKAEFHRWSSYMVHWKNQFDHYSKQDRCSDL
Chain of BChE (P06276 29-602, species assumed): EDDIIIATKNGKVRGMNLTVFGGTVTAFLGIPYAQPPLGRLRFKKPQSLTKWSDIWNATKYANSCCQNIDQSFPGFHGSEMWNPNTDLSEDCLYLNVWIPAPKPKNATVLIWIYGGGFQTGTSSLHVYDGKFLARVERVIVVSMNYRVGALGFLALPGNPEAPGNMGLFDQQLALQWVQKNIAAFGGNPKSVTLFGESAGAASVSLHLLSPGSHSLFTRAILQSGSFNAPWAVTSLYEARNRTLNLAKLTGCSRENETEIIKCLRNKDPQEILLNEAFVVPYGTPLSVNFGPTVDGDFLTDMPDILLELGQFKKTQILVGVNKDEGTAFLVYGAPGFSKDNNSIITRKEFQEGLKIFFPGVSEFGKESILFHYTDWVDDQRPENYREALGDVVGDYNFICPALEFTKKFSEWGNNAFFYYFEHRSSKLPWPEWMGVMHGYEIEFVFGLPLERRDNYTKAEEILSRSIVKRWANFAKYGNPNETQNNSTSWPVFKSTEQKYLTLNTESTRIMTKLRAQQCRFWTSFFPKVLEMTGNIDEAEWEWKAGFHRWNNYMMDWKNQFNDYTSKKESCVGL
T2 sequence (P05067 672-713 limits assumed): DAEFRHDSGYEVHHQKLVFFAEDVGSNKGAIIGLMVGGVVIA
T1 sequence (P05067 672-713 limits assumed): as above

SMILES: COc1ccc(-c2cc(=O)c3c(OC)cc(OC)cc3o2)cc1 [F3, 5,7,4′-trimethoxyflavone]
- IC50 [1]: 39.5 ± 0.61 µM
- IC50 [2]: 152 ± 6.14 µM
- IC50 [3, 13]: 91.4 ± 4.67 µM
- IC50 [4]: > 100 µM
- IC50 [5]: 106 ± 1.14 µM
- viability at 0.1 µM [6, 14]: 101%
- viability at 1 µM [6, 15]: 102%
- viability at 10 µM [6, 16]: 102%
- viability at 100 µM [6, 17]: 95.5%
- IC50 [7]: > 100 µM

SMILES: COc1ccc(-c2oc3cc(OC)cc(OC)c3c(=O)c2OC)cc1 [F5, 3,5,7,4′-tetramethoxyflavone]
- IC50 [1]: 51.3 ± 3.13 µM
- IC50 [2]: 164 ± 5.13 µM
- IC50 [3]: 134 ± 5.08 µM
- IC50 [4]: > 100 µM
- IC50 [5]: 209.1 ± 0.82 µM
- viability at 0.1 µM [6, 14]: 99.9%
- viability at 1 µM [6, 15]: 99.8%
- viability at 10 µM [6, 16]: 98.8%
- viability at 100 µM [6, 17]: 102%
- IC50 [7]: > 100 µM

SMILES: COc1cc(OC)c2c(=O)cc(-c3ccccc3)oc2c1 [F1, 5,7-dimethoxyflavone]
- IC50 [1]: 75.9 ± 4.96 µM
- IC50 [2]: 92.19 ± 0.69 µM
- IC50 [3, 13]: 105 ± 1.34 µM
- IC50 [4]: > 100 µM
- IC50 [5]: 181 ± 2.66 µM
- viability at 0.1 µM [6]: 104%
- viability at 1 µM [6]: 104%
- viability at 10 µM [6]: 103%
- viability at 100 µM [6]: 103%
- IC50 [7]: > 100 µM

SMILES: COc1cc2c(cc1OC)C(=O)C(CC1CCN(Cc3ccccc3)CC1)C2 (stereo not drawn) [Donepezil]
- Time spent exploring the familiar object [8, 18]: 32.11 s
- Time spent exploring the novel object [8, 18]: 56.84 s
- Time spent exploring the familiar object [8, 19]: 52.86 s
- Time spent exploring the novel object [8, 19]: 64.31 s
- %unfamiliar arm exploration ([9]; long-term memory (24 hours), donepezil 3 mg/kg p.o. + scopolamine 1 mg/kg i.p.): 39.94%
- %unfamiliar arm exploration ([9]; short-term memory (30 min), donepezil 3 mg/kg p.o. + scopolamine 1 mg/kg i.p.): 40.79%
- Locomotor activity, total number of arm entries [10]: 23.57
- Time to find the platform, Escape latency ([11]; acquisition phase Day 1, donepezil 3 mg/kg p.o. + scopolamine 1 mg/kg i.p.): 59.86 s
- Time to find the platform, Escape latency ([11]; acquisition phase Day 2, donepezil 3 mg/kg p.o. + scopolamine 1 mg/kg i.p.): 49.00 s
- Time to find the platform, Escape latency ([11]; acquisition phase Day 3, donepezil 3 mg/kg p.o. + scopolamine 1 mg/kg i.p.): 37.04 s
- Time to find the platform, Escape latency ([11]; acquisition phase Day 4, donepezil 3 mg/kg p.o. + scopolamine 1 mg/kg i.p.): 27.71 s
- Time to find the platform, Escape latency ([11]; acquisition phase Day 5, donepezil 3 mg/kg p.o. + scopolamine 1 mg/kg i.p.): 25.57 s
- Time spent in the target quadrant ([11]; probe test day 6, donepezil 3 mg/kg p.o. + scopolamine 1 mg/kg i.p.): 18.39 s

SMILES: COc1cc(O)c2c(=O)c(OC)c(-c3ccccc3)oc2c1 [F4, 5-hydroxy-3,7-dimethoxyflavone]
- IC50 [1]: 63.9 ± 1.83 µM
- IC50 [2]: 33.5 ± 2.97 µM
- IC50 [3, 13]: 97.1 ± 2.38 µM
- IC50 [4]: > 100 µM
- IC50 [5, 20]: 217.6 ± 1.84 µM
- viability at 0.1 µM [6, 21]: 102%
- viability at 1 µM [6, 22]: 103%
- viability at 10 µM [6, 23]: 103%
- viability at 100 µM [6, 24]: 80.5%
- %Cell viability (cytotoxicity) [12]: toxic
- IC50 [7]: > 100 µM

SMILES: CN1[C@@H]2C[C@@H](OC(=O)[C@H](CO)c3ccccc3)C[C@H]1[C@@H]1O[C@@H]12 [Scopolamine]
- Time spent exploring the familiar object [8, 25]: 43.83 s
- Time spent exploring the novel object [8, 25]: 27.21 s
- Time spent exploring the familiar object [8, 26]: 63.40 s
- Time spent exploring the novel object [8, 26]: 46.80 s
- %unfamiliar arm exploration ([9]; long-term memory (24 hours), scopolamine 1 mg/kg i.p. alone): 33.37%
- %unfamiliar arm exploration ([9]; short-term memory (30 min), scopolamine 1 mg/kg i.p. alone): 31.09%
- Time to find the platform, Escape latency ([11]; acquisition phase Day 1, scopolamine 1 mg/kg i.p. alone): 58.43 s
- Time to find the platform, Escape latency ([11]; acquisition phase Day 2, scopolamine 1 mg/kg i.p. alone): 54.46 s
- Time to find the platform, Escape latency ([11]; acquisition phase Day 3, scopolamine 1 mg/kg i.p. alone): 46.21 s
- Time to find the platform, Escape latency ([11]; acquisition phase Day 4, scopolamine 1 mg/kg i.p. alone): 39.64 s
- Time to find the platform, Escape latency ([11]; acquisition phase Day 5, scopolamine 1 mg/kg i.p. alone): 35.04 s

SMILES: Cc1c(C)c2c(c(C)c1O)CCC(C)(C(=O)O)O2 (stereo not drawn) [Trolox, reference compound]
- IC50 [4]: 81.4 ± 4.67 µM
- IC50 [7]: 24.6 ± 0.39 µM

SMILES: COc1cc(OC)c2c(=O)c(OC)c(-c3ccccc3)oc2c1 [F2, 3,5,7-trimethoxyflavone]
- IC50 [1]: 83.9 ± 1.67 µM
- IC50 [2]: 233 ± 6.89 µM
- IC50 [3, 13]: 87.1 ± 4.51 µM
- IC50 [4]: > 100 µM
- IC50 [5, 20]: 237.1 ± 2.28 µM
- viability at 0.1 µM [6, 21]: 103%
- viability at 1 µM [6, 22]: 102%
- viability at 10 µM [6, 23]: 102%
- viability at 100 µM [6, 24]: 94%
- %Cell viability (cytotoxicity) [12]: toxic
- IC50 [7]: > 100 µM
